Assay results taken from US20030158245A1, “Fused heterocyclic derivatives, their production and use” (priority 2000, published 2003).

How the values were obtained:
[1] = test system: interstitial cells prepared from the bone marrow of the femur of normal rats; assay: Action to promote osteogenesis: alkaline phosphatase activity in bone marrow interstitial cells; format: cell-based, Sprague-Dawley rats; parameters: dose or concentration left out as unconfirmed; details: rat bone marrow interstitial cells, compound added from day 2 for 5 days; mean ± S.E. (n = 4); all **p<0.01 vs. control
Description: Action to Promote Osteogenesis:
The action was determined in interstitial cells prepared from the bone marrow of the femur of normal rats by using alkaline phosphatase activity as the measure for osteogenesis. In other words, interstitial cells were prepared from the bone marrow of the femur of 7-week old male Sprague-Dawley rats according to the method of Maniatopoulos et al. [Cell Tissue Research, vol. 254, p. 317 (1988)], and cultivated in α-MEM (minimum essential medium) containing dexamethasone (10^−7 M) and β-glycerophosphoric acid (10^−2 M) to facilitate formation of the calcified osteoid tissue. After one week, the primary culture cells that reached the confluence were recovered by treating with a solution containing 0.25% trypsin and 0.2% EDTA and were subcultured in culture plates at a cell density of […] (day 0 of the cultivation). […] After the cells were washed with a phosphate buffer solution, 0.2% Nonidet P-40 was added to the cells, which were homogenized and centrifuged at 3000 rpm for 10 minutes, and the supernatant was subjected to the determination of alkaline phosphatase activity according to the method of Lowry et al. [Journal of Biological Chemistry, vol. 207, p. 19 (1954)]. Student's t-test was used for the statistical treatment.

[2] = test system: Chondromodulin-I (ChM-I) mRNA; assay: Assay of Chondromodulin-I (ChM-I) mRNA by RT-PCR in ATDC5 cells; format: cell-based, mouse; details: 10^−6 M test compound; ATDC5 cells cultured 7 days; density of ChM-I band determined by bioimaging; no test compound added = 0
Description: Assay of Chondromodulin-I (ChM-I) mRNA:
ATDC5, a substrain derived from mouse teratocarcinoma cell line AT805, was used. ATDC5 cells were cultured at 37° C. for 7 days in the presence of the test compound using a 1:1 mixed medium of Dulbecco's modified Eagle's medium/Ham's F-12 medium containing 5% heat-inactivated fetal bovine serum and 20 μg/ml gentamycin under a condition of 5% carbon dioxide and 95% air. After the cultivation was completed, cells were collected, from which RNA was recovered by using an RNeasy mini kit (manufactured by Quiagen Company), followed by DNAase treatment using MessageClean Kit (manufactured by Genhunter Company) to obtain the total RNA. The amount of ChM-I mRNA in the total RNA was determined by the RT-PCR method. First, cDNA was synthesized from the RNA preparation by reverse transcription reaction using TaKaRa PCR Kit (AMV) ver. 2.1 and random 9-mers (manufactured by Takara Shuzo Co., Ltd.) according to the instruction for the kit. Next, ChM-I gene was amplified specifically by using HotStarTaq DNA polymerase (manufactured by Quiagen company). The following primers were used for the amplification of ChM-I gene: […]
The amplification reaction was carried out in a GeneAmp PCR System 2400 (manufactured by Perkin Elmer Inc.) after warming at 95° C. for 15 minutes, which was followed by 32 repeating reaction cycles of 95° C. for 20 seconds, 58° C. for 10 seconds and 72° C. for 30 seconds. The thus-obtained PCR product was separated by electrophoresis on 2% agarose gel containing ethidium bromide, and the fluorescence intensity of the DNA fragment, which appeared by ultraviolet irradiation at the location corresponding the size (212 bp) expected from the base sequence of mouse ChM-I, was determined. The activity of the test compound to enhance ChM-I expression is expressed as the density of ChM-I band as determined by bioimaging (Table 49). […]

| Compound | melting point | Alkaline phosphatase activity (A405) [1] | ChM-I expression-enhancing activity [2] |
| --- | --- | --- | --- |
| CCNC(=O)c1sc(Oc2ccc3c(c2)OCO3)c2c1CCc1cnn(C)c1-2 [Example 255, N-ethyl-4,5-dihydro-8-(3,4-methylenedioxyphenoxy)-1-methyl-1H-thieno[3,4-g]indazole-6-carboxamide] | – | 1.82 ± 0.06** | 106 |
| CC(C)OP(=O)(/C=C/c1ccc(Oc2sc(C(N)=O)c3c2-c2nn(C)cc2CC3)cc1)OC(C)C [Example 380, 8-{4-((E)-2-diisopropoxyphosphorylvinyl)phenoxy}-4,5-dihydro-2-methyl-2H-thieno[3,4-g]indazole-6-carboxamide] | 216 to 217 °C | – | – |
| CCCS(=O)(=O)c1sc(C(N)=O)c2c1-c1c(cnn1C)CC2 [Example 70, 4,5-Dihydro-1-methyl-8-n-propylsulfonyl-1H-thieno[3,4-g]indazole-6-carboxamide] | – | 0.25 ± 0.02** | 47 |
| COc1sc(C(=O)O)c2c1-c1c(cnn1C)CC2 [Example 271] | 250 to 252 °C | – | – |
| CCCCc1sc(C(=O)OCC)c2c1-c1c(cnn1C)CC2 [Example 78, 8-n-Butyl-4,5-dihydro-1-methyl-1H-thieno[3,4-g]indazole-6-carboxylic Acid Ethyl Ester] | 80 to 81 °C | – | – |
| Cn1ncc2c1-c1c(csc1S(C)(=O)=O)CC2 [Example 490, 1-Methyl-8-methylsulfonyl-4,5-dihydro-1H-thieno[3,4-g]indazole] | 192 to 193 °C | – | – |
| CCOC(=O)c1sc(C)c2c1CCc1cnn(C)c1-2 [Example 73, 4,5-Dihydro-1,8-dimethyl-1H-thieno[3,4-g]indazole-6-carboxylic Acid Ethyl Ester] | 118 to 119 °C | – | – |
| CCOC(=O)c1sc(C)c2c1CCc1cnn(CC(F)(F)F)c1-2 [Example 127, 4,5-Dihydro-8-methyl-1-(2,2,2-trifluoroethyl)-1H-thieno[3,4-g]indazole-6-carboxylic Acid Ethyl Ester] | 120 to 121 °C | – | – |
| CC(=O)c1sc(Oc2ccc3c(c2)OCO3)c2c1CCc1cnn(C)c1-2 [Example 251, 1-[4,5-Dihydro-8-(3,4-methylenedioxyphenoxy)-1-methyl-1H-thieno[3,4-g]indazol-6-yl]-1-ethanone] | – | 1.33 ± 0.13** | 87 |
| CCOC(=O)c1sc(OC)c2c1CCc1cnn(C)c1-2 [Example 263] | 82 to 84 °C | – | – |
| CCOC(=O)N1C2=C(CCc3csc(Oc4ccccc4)c32)CN1C [Example 143, 4,5-dihydro-2-methyl-8-phenoxy-2H-thieno[3,4-g]indazole-1-carboxylic Acid Ethyl Ester] | 89 to 90 °C | – | – |

Now from value to molecule, other results behind:

| melting point | Compound | Alkaline phosphatase activity (A405) [1] | ChM-I expression-enhancing activity [2] |
| --- | --- | --- | --- |
| 233 to 234 °C | NC(=O)c1sc(Nc2ccccc2)c2c1CCc1cn[nH]c1-2 [Example 29, 4,5-Dihydro-8-phenylamino-1H-thieno[3,4-g]indazole-6-carboxamide] | – | – |
| 148 to 149 °C | CC(C)(C)OC(=O)c1sc(Nc2ccccc2)c2c1CCc1cnoc1-2 [Example 4, 4,5-Dihydro-8-phenylaminothieno[3,4-g]-1,2-benzisoxazole-6-carboxylic Acid t-butyl Ester] | – | – |
| 197 to 198 °C | CN(C(=O)c1ccccc1)c1sc(C(N)=O)c2c1-c1oncc1CC2 [Example 18, 8-[(N-Benzoyl-N-methyl)amino]-4,5-dihydrothieno[3,4-g]-1,2-benzisoxazole-6-carboxamide] | – | – |
| 232 to 233 °C (dec.) | CN(C(=O)c1ccccc1)c1sc(C(=O)O)c2c1-c1oncc1CC2 [Example 11, 8-[(N-Benzoyl-N-methyl)amino]-4,5-dihydrothieno[3,4-g]-1,2-benzisoxazole-6-carboxylic Acid] | – | – |
| 210 to 211 °C | Cn1cc2c(n1)-c1c(Oc3ccc(C=O)cc3)sc(C(N)=O)c1CC2 [Example 380, 8-(4-Formylphenoxy)-4,5-dihydro-2-methyl-2H-thieno[3,4-g]indazole-6-carboxamide] | – | – |
| 197 to 198 °C | CC(C)(C)OC(=O)c1sc(Nc2ccc(Cl)cc2)c2c1CCc1cnoc1-2 [Example 3, 8-(4-Chlorophenylamino)-4,5-dihydrothieno[3,4-g]-1,2-benzisoxazole-6-carboxylic Acid t-butyl Ester] | – | – |
| 131 to 132 °C | CCOC(=O)c1sc(C)c2c1CCc1cnn(Cc3ccccc3)c1-2 [Example 128, 1-Benzyl-4,5-dihydro-8-methyl-1H-thieno[3,4-g]indazole-6-carboxylic Acid Ethyl Ester] | – | – |
| 240 to 241 °C | NC(=O)c1sc(N(C(=O)OCc2ccccc2)c2ccccc2)c2c1CCc1c[nH]nc1-2 [Example 21, 8-[(N-Benzyloxycarbonyl-N-phenyl)amino]-4,5-dihydro-1H-thieno[3,4-g]indazole-6-carboxamide] | – | – |
| 211 to 212 °C (dec.) | O=C(O)c1sc(Nc2ccccc2)c2c1CCc1cnoc1-2 [Example 13, 4,5-Dihydro-8-phenylaminothieno[3,4-g]-1,2-benzisoxazole-6-carboxylic Acid] | – | – |
| 220 to 221 °C | Cn1cc2c(n1)-c1c(N(C(=O)OCc3ccccc3)c3ccccc3)sc(C(N)=O)c1CC2 [Example 22, 8-[(N-Benzyloxycarbonyl-N-phenyl)amino]-4,5-dihydro-2-methyl-2H-thieno[3,4-g]indazole-6-carboxamide] | – | – |
| 232 to 233 °C (dec.) | O=C(O)c1sc(Nc2ccc(Cl)cc2)c2c1CCc1cnoc1-2 [Example 12, 8-(4-Chlorophenylamino)-4,5-dihydrothieno[3,4-g]-1,2-benzisoxazole-6-carboxylic Acid] | – | – |
| 140 to 141 °C | Cn1ncc2c1-c1c(Nc3ccccc3)sc(C(N)=O)c1CC2 [Example 28, 4,5-Dihydro-1-methyl-8-phenylamino-1H-thieno[3,4-g]indazole-6-carboxamide] | – | – |
| 193 to 194 °C | CNC(=O)c1sc(Nc2ccccc2)c2c1CCc1cnoc1-2 [Example 33, N-Methyl-4,5-dihydro-8-(phenylamino)thieno[3,4-g]-1,2-benzisoxazole-6-carboxamide] | – | – |
| 224 to 225 °C | NC(=O)c1sc(Nc2ccc(Cl)cc2)c2c1CCc1cnoc1-2 [Example 19, 8-(4-Chlorophenylamino)-4,5-dihydrothieno[3,4-g]-1,2-benzisoxazole-6-carboxamide] | – | – |
| 154 to 156 °C | COc1sc(C(N)=O)c2c1-c1c(cnn1C)CC2 [Example 279] | – | – |
| 278 to 279 °C | O=C(O)c1sc(N(C(=O)OCc2ccccc2)c2ccccc2)c2c1CCc1c[nH]nc1-2 [Example 14, 8-[(N-Benzyloxycarbonyl-N-phenyl)amino]-4,5-dihydro-1H-thieno[3,4-g]indazole-6-carboxylic Acid] | – | – |
